Columns and labels:
Cavia porcellus = species on record: Cavia porcellus; test: Compound was tested for the ability to relax histamine induced contraction of isolated trachea; assay type: functional
[1] = target: Beta-1 adrenergic receptor (Homo sapiens, UniProt P08588)
Description: Compound was tested for its binding affinity to human Beta-1 adrenergic receptor by using the radioligand [3H]CGP-12177

[2] = target: Beta-2 adrenergic receptor (Homo sapiens, UniProt P07550)
Chain of Beta-2 adrenergic receptor (P07550 whole entry): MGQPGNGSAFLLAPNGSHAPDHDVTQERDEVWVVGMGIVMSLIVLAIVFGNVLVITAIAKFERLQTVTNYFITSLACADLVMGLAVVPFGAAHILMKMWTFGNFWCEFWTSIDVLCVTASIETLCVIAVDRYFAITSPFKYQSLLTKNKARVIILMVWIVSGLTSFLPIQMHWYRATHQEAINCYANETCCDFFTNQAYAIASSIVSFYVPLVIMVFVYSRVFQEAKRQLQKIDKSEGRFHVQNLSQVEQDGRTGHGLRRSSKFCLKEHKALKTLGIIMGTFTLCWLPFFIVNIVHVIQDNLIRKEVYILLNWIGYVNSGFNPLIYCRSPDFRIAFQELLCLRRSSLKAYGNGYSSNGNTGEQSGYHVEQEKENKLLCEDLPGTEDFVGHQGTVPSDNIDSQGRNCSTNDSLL
Description: Compound was tested for its binding affinity to human Beta-2 adrenergic receptor by using the radioligand [3H]CGP-12177

Chain of Beta-1 adrenergic receptor (P08588 whole entry): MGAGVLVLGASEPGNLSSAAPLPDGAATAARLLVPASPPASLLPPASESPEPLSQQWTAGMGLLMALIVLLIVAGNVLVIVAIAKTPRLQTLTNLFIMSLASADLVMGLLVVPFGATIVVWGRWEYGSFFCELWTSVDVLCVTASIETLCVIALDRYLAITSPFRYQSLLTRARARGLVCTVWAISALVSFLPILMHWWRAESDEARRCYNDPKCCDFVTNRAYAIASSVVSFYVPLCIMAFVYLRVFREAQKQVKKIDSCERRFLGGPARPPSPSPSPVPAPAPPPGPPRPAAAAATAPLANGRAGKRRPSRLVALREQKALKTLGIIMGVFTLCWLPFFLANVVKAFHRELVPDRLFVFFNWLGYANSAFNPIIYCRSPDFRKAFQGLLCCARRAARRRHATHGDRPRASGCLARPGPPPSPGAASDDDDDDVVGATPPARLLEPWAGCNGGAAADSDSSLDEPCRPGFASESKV

Structure (SMILES)	pD2 (Cavia porcellus)	Kd [1] [nM]	Kd [2] [nM]
CNCC(O)c1ccc(OC)c2c1sc(=O)n2C (centres undefined)	7.08		
CNCC(O)c1ccc(O)c2nc(O)sc12 (centres undefined)	10.6	120	51

Source: ChEMBL document CHEMBL1131706, “S1319: a novel beta2-andrenoceptor agonist from a marine sponge Dysidea sp” (Bioorg Med Chem Lett, 1999)
